Assay [1] relates to oxidation of serum lipids. Briefly: TBARS assay on serum of treated rats (CuSO4-initiated oxidation). It counts as in vivo, Male Sprague-Dawley rats. The settings on record: % of control; thiobarbituric acid reactive substances as nmoles MDA, rat serum; diet 0.3%, 4 days; N = 5. An excerpt:
(§1) A typical experiment consists of 4-6 groups of rats (N = 5 per group) with I group being a control which receives no MDL compound and the other groups being treated with 0.3% MDL compound. Some of the compounds are either repeated at 0.3% or evaluated again at the lower dose of 0.1%. House Male Sprague-Dawley rats, 50-100 g, (Harlan Laboratories, Indianapolis, IN) in groups of 5, feeding ad libitum water and Purina Rodent chow (#5002) with or without MDL compound as a dietary admixture for 4 days. Make dietary admixtures (0.3%) by mixing 1.2 grams of an MDL compound with 400 grams of Purina rodent chow (#5002). Mix the MDL compound with approximately 50 grams of food using a mortar and pestle. This is added to the remainder of the food and mixed for 3 hours on a rotary mixer. In the morning of day 5, anesthetize non-fasted rats with carbon dioxide, and collect blood by cardiac puncture. Sacrifice rats by cervical dislocation. Record body weights and liver weights in grams. Record food consumption as grams • day^-1 • rat^-1. Deaths are recorded as mortality. Use aliquots of fresh serum for clinical chemistries, thiobarbituric acid reactive substances (TBARS) and conjugated diene measurements. Freeze aliquots of serum (∼ 0.5mL) and whole livers at -20°C for compound and metabolite concentration determination at a later time.
In this assay the oxidation of serum lipids is initiated with CuSO4, resulting in the formation of aldehydes, such as malondialdehyde (MDA). Upon incubation with thiobarbituric acid, the absorbance of the aldehydes can be detected at 530-540 nm. As stated in the previous example, TBARS values which are lower than control serum values indicate the relative ability of a test compound to inhibit the oxidation of lipids in a sample. Measure TBARS as follows: mix 100µL of serum with 400µL of a 5mmol CuSO4 solution and incubate at 37°C for 3 hr. Stop the reactions by addition of 1.0mL of 20% trichloroacetic acid. Then add 1.0mL of 0.67% thiobarbituric acid in 0.05 N sodium hydroxide, mix, and incubate the samples for 30 min at 90°C. Centrifuge samples briefly to pellet undissolved material, and transfer the supernatants to a 96-well microtiter plate. Measure absorbances at 540 nm using a Biotek model EL311 microplate reader. The nmoles of MDA produced are calculated from a standard curve of 0 to 10 nmoles of MDA prepared from malonaldehyde bis(dimethylacetal). Serum samples from treated rats are compared to serum samples from control rats that received no MDL compound.

In assay [2] the test system is VCAM-1. Put plainly: Inhibition of VCAM-1 expression in proliferating human umbilical vein endothelial cells (cell ELISA). The class given is cell-based. The settings on record: HUVEC, coincubated with tumor necrosis factor-alpha about 20 to 24 hr, average of three runs, numbers in parentheses represent negative values, read-out: VCAM-1 (% inh. 50 µM). How it is done: Plate proliferating human umbilical vein endothelial cells (HUVEC) or human aortic smooth muscle cells (HASMC) from Clonetics (San Diego, CA) onto 96-well plates in 100 µL medium per well at 20,000 cells per cm^2. Maintain the cultures in growth medium (EGM or SMGM2, Clonetics, San Diego, CA) for two days prior to addition of cytokines or drugs. Add cytokines plus or minus compounds for 20 to 24 hours prior to analysis for adhesion molecule levels. Add tumor necrosis factor (Genzyme, Cambridge, MA) to cultures at 500-1000 units/mL to stimulate ICAM-1 expression. Add interleukin-4 (GIBCO-BRL, Gaithersburg, MD) to cultures at 100-200 pg/mL to stimulate VCAM-1 expression. […] Remove the culture medium, and wash the monolayers twice with Hanks buffered saline solution (HBSS) at room temperature. Add the primary antibody (anti-human VCAM-1 from Upstate Biotechnology, Inc., Lake Placid, NY or anti-human ICAM-1 from Immunotech, Inc., Westbrook, ME) to each well (1 µg/mL in HBSS plus 5% newborn calf serum, GIBCO-BRL, Gaithersburg, MD) and incubate at 37°C for 1 hr. Wash the wells twice with HBSS, then add 100 µL of a 1/1000 dilution of goat anti-mouse IgG conjugated to horse radish peroxidase (BioRad, Hercules, CA) in HBSS plus 5% newborn calf serum to each well and incubated for 1 hr at 37°C. […] Measure absorbance at 450 nm with a plate reader. […]

Assay [3] has as its system ICAM-1. Briefly: Inhibition of ICAM-1 expression in proliferating human umbilical vein endothelial cells (cell ELISA). It counts as cell-based. The settings on record: HUVEC, coincubated with tumor necrosis factor-alpha about 20 to 24 hr, average of two runs, read-out: ICAM-1 (% inh. 50 µM). The protocol: Plate proliferating human umbilical vein endothelial cells (HUVEC) or human aortic smooth muscle cells (HASMC) from Clonetics (San Diego, CA) onto 96-well plates in 100 µL medium per well at 20,000 cells per cm^2. Maintain the cultures in growth medium (EGM or SMGM2, Clonetics, San Diego, CA) for two days prior to addition of cytokines or drugs. Add cytokines plus or minus compounds for 20 to 24 hours prior to analysis for adhesion molecule levels. Add tumor necrosis factor (Genzyme, Cambridge, MA) to cultures at 500-1000 units/mL to stimulate ICAM-1 expression. Add interleukin-4 (GIBCO-BRL, Gaithersburg, MD) to cultures at 100-200 pg/mL to stimulate VCAM-1 expression. […] Remove the culture medium, and wash the monolayers twice with Hanks buffered saline solution (HBSS) at room temperature. Add the primary antibody (anti-human VCAM-1 from Upstate Biotechnology, Inc., Lake Placid, NY or anti-human ICAM-1 from Immunotech, Inc., Westbrook, ME) to each well (1 µg/mL in HBSS plus 5% newborn calf serum, GIBCO-BRL, Gaithersburg, MD) and incubate at 37°C for 1 hr. Wash the wells twice with HBSS, then add 100 µL of a 1/1000 dilution of goat anti-mouse IgG conjugated to horse radish peroxidase (BioRad, Hercules, CA) in HBSS plus 5% newborn calf serum to each well and incubated for 1 hr at 37°C. Wash the wells three times with HBSS, then add 100 µL of TMB substrate (BioRad, Hercules, CA) to each well. Stop the reaction after blue color develops by addition of 50 µL of IN H2SO4. Measure absorbance at 450 nm with a plate reader. […] In these experiments, the cells were coincubated with tumor necrosis factor-alpha along with the indicated compounds about 20 to 24 hr before assaying cell surface adhesion molecule expression.

For assay [4], the system named is oxidation of lipids. Put plainly: Conjugated diene lag phase determination on pooled serum of treated rats. The class given is in vivo, Male Sprague-Dawley rats. The settings on record: not normalized, mean of 2 determinations of pooled rat serum (N = 5), diet 0.3%, 4 days.
Source text: as §1
Conjugated diene lag phase is another indicator of the oxidation of lipids. Lipids exposed to Cu^++ form conjugated dienes that absorb ultraviolet light in the range of 230 to 235 nm. The lag phase of diene formation gives an indication of the amount of oxidation of the lipids. A lag phase longer than control samples indicate inhibition of the oxidation. Determine conjugated diene lay phase using a Varian DMS200 spectrophotometer (fitted with a constant temperature, 5 cuvette sample changer) at 30°C. Add twenty (20) µL of pooled serum to cuvettes containing 3.0mL phosphate buffered saline, pH 7.5, and mix. Measure the absorbances of all cuvettes and set the instrument baseline to zero using the lowest absorbing sample. Next, add 100µL of 1 mmol CuSO4 and mix immediately. Record the absorbance of each cuvette at 2 min intervals for a period of 840 min. Capture the data and transfer to a Microsoft EXCEL® spreadsheet where the curves are smoothed and differentials obtained. Determine lag times mathematically as minutes. Pool serum samples (N = 5); data presented are the mean values of 2 determinations. Compare serum samples from treated rats to serum samples from control rats that received no MDL compound.

In assay [1], `CC(C)=CCC[C@H](C)CCOc1cc(C(C)(C)C)c(O)c(C(C)(C)C)c1` [MDL 103,294, Phenol, 2,6-bis(1,1-dimethylethyl)-4-[(3,7-dimethyl-6-octenyl)oxy]-, (S)-] yielded a TBARS of 18%.

`CC(C)=CCCC(C)CCSc1cc(C(C)(C)C)c(O)c(C(C)(C)C)c1` (centres unmarked) [MDL 103,960, Phenol, 2,6-bis(1,1-dimethylethyl)-4-[(3,7-dimethyl-6-octenyl)thio]-]: the figures for the inhibition at 50 µM in assay [2] and in assay [3] were 25.7% and 9.5%, respectively. In assay [1], the TBARS worked out at 24%. Further, the “CONJ. DIENE” value in assay [4] amounted to 363 min.

For `CC(C)CCCC(C)CCOc1ccc(O)c(C(C)(C)C)c1` (centres unmarked) [MDL 104,191, Phenol, 2-(1,1-dimethylethyl)-4-[(3,7-dimethyloctyl)oxy]-], the inhibition at 50 µM was 34.3% in assay [2] and 70.5% in assay [3]. The TBARS in assay [1] was determined as 20%. Also, the “CONJ. DIENE” value in assay [4] was 708 min.

With `CC(C)=CCC[C@@H](C)CCOc1cc(C(C)(C)C)c(O)c(C(C)(C)C)c1` [MDL 104,535, Phenol, 2,6-bis(1,1-dimethylethyl)-4-[(3,7-dimethyl-6-octenyl)oxy]-,(R)-], in assay [3], the inhibition at 50 µM amounted to 11.5%. In assay [1], the TBARS was found to be 11%.
